This test has as its target SMYD3 (Homo sapiens (Human), UniProt Q9H7B4). The test is described as follows: SMYD3 biochemical assay (SMYD3 enzyme assay on MEKK2 protein substrate, scintillation proximity assay). As to conditions: 3H-SAM, SPA, IC50 values are an average of n = 1 to n = 50, read-out: SMYD3 Biochem IC50. An excerpt:
S-adenosylmethionine (SAM), S-adenosylhomocysteine (SAH), Tris, Tween20, dimethylsulfoxide (DMSO), bovine skin gelatin (BSG), and Tris(2-carboxyethyl)phosphine hydrochloride solution (TCEP) were purchased from Sigma-Aldrich at the highest level of purity possible. ^3H-SAM was purchase from American Radiolabeled Chemicals with a specific activity of 80 Ci/mmol. 384-well opaque white OptiPlates and SPA beads (Perkin Elmer, catalog # RPNQ0013) were purchased from PerkinElmer.
N-terminally GST-tagged MEKK2 (MAP3K2) protein corresponding to reference sequence AAF63496.3 was purchased from Life Technologies (catalog # PV4010). […] Protein identity was confirmed by MS/MS analysis after proteolytic digestion. The protein sequence used was:
Full-length human SMYD3 isoform 1 (BAB86333) was inserted into a modified pET21b plasmid containing a His6 tag and TEV and SUMO cleavage sites. Because two common variants of SMYD3 exist in the population, site directed mutagenesis was subsequently performed to change amino acid 13 from an asparagine to a lysine, resulting in plasmid pEPZ533.
E. coli (BL21 codonplus RIL strain, Stratagene) were transformed with plasmid pEPZ553 by mixing competent cells and plasmid DNA and incubating on ice for 30minutes followed by heat shock at 42° C. for 1 minute and cooling on ice for 2 minutes. Transformed cells were grown and selected on LB agar with 100 μg/mL ampicillin and 17 μg/mL chloramphenicol at 37° C. overnight. A single clone was used to inoculate 200 mL of LB medium with 100 μg/mL ampicillin and 17 μg/mL chloramphenicol and incubated at 37° C. on an orbital shaker at 180 rpm. Once in log growth, the culture was diluted 1:100 into 2 L of LB medium and grown until OD600 was about 0.3 after which the culture was incubated at 15° C. and 160 rpm. Once OD600 reached about 0.4, IPTG was added to a final concentration of 0.1 mM and the cells were grown overnight at 15° C. and 160 rpm. Cells were harvested by centrifugation at 8000 rpm, for 4 minutes at 4° C. and stored at −80° C. for purification.
The column was washed with Buffer B (Buffer A plus 20 mM imidazole) and His-tagged SMYD3 was eluted with Buffer C (Buffer A plus 300 mM imidazole). The His tag, TEV and SUMO cleavage sites were removed generating native SMYD3 by addition of ULP1 protein at a ratio of 1:200 (ULP1:SMYD3). Imidazole was removed by dialysis overnight in Buffer A. The dialyzed solution was applied to a second Nickel column and the native SMYD3 protein was collected from the column flow-through. The flow-through was dialyzed in Buffer D (25 mM Tris, 5% glycerol, 5 mM β-mercaptoethanol, 50 mM NaCl, pH7.8) and ULP1 was removed using a Q sepharose fast flow column.
General Procedure for SMYD3 Enzyme Assays on MEKK2 Protein Substrate
The assays were all performed in a buffer consisting of 25 mM Tris-Cl pH 8.0, 1 mM TCEP, 0.005% BSG, and 0.005% Tween 20, prepared on the day of use. Compounds in 100% DMSO (1 ul) were spotted into a 384-well white opaque OptiPlate using a Bravo automated liquid handling platform outfitted with a 384-channel head (Agilent Technologies). DMSO (1 ul) was added to Columns 11, 12, 23, 24, rows A-H for the maximum signal control and 1 ul of SAH, a known product and inhibitor of SMYD3, was added to columns 11, 12, 23, 24, rows I-P for the minimum signal control. A cocktail (40 ul) containing the SMYD3 enzyme was added by Multidrop Combi (Thermo-Fisher). The compounds were allowed to incubate with SMYD3 for 30 min at room temperature, then a cocktail (10 ul) containing SAM and MEKK2 was added to initiate the reaction (final volume=51 ul).
On the technique in general: In a scintillation proximity assay essentially only radioactivity close to the scintillant gives light.
Sequence of SMYD3 (Q9H7B4 whole entry): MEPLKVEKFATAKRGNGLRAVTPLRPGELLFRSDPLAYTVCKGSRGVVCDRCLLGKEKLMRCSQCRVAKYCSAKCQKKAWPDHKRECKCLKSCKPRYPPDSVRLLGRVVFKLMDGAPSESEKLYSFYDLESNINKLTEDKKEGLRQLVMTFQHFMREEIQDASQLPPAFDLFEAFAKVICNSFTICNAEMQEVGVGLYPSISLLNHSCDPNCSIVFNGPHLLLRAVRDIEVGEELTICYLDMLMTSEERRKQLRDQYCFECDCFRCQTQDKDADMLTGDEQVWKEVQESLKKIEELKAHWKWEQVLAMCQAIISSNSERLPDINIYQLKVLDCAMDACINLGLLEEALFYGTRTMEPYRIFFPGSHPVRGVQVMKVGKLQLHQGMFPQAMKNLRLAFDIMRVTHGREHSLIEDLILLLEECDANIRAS
What is called IC50 is the point on the concentration scale where inhibition reaches its midpoint. As for `CC(N)CC(=O)N[C@H]1CC[C@H](NC(=O)c2cc(C3CC3)on2)CC1` (some centres unmarked) [compound 1, N-((1r,4r)-4-(3-aminobutanamido)cyclohexyl)-5-cyclopropylisoxazole-3-carboxamide], the IC50 is 0.466 µM.

For `C[C@H](N)CC(=O)N[C@H]1CC[C@H](N(C)C(=O)c2cc(C3CC3)on2)CC1` [compound 58, N-((1S,4r)-4-((S)-3-aminobutanamido)cyclohexyl)-5-cyclopropyl-N-methylisoxazole-3-carboxamide], the IC50 came out at 6.11 µM.

Take `N[C@H]1CC[C@@H](C(=O)N[C@H]2CC[C@H](NC(=O)c3cc(C4CC4)on3)CC2)CC1` [compound 13, N-((1R,4r)-4-((1s,4S)-4-aminocyclohexane-1-carboxamido)cyclohexyl)-5-cyclopropylisoxazole-3-carboxamide]: the IC50 came to 0.352 µM.

Regarding `C[C@@H](N)CC(=O)N[C@H]1CC[C@H](N(Cc2ccccc2)C(=O)c2cc(C3CC3)on2)CC1` [compound 45, N-((1R,4r)-4-((R)-3-aminobutanamido)cyclohexyl)-N-benzyl-5-cyclopropylisoxazole-3-carboxamide], the IC50 was 8.22 µM.

Take `NCCCS(=O)(=O)N[C@H]1CC[C@H](NC(=O)c2cc(C3CC3)on2)CC1` [Cpd. No. 34, N-((1r,4r)-4-((3-amino-propyl)sulfonamido)cyclohexyl)-5-cyclopropylisoxazole-3-carboxamide]: the IC50 was 1.34 µM.

On to `CN(C(=O)c1cc(C2CC2)on1)[C@H]1CC[C@H](NC(=O)CCN)CC1` [compound 60, N-((1r,4r)-4-(3-aminopropanamido)cyclohexyl)-5-cyclopropyl-N-methylisoxazole-3-carboxamide], for which the IC50 came to 5.29 µM.

On to `COCCN(C(=O)c1cc(C2CC2)on1)[C@H]1CC[C@H](NC(=O)CCN)CC1` [compound 44, N-((1r,4r)-4-(3-aminopropanamido)cyclohexyl)-5-cyclopropyl-N-(2-methoxyethyl)isoxazole-3-carboxamide], for which the IC50 is 16.4 µM.

Turning to `COCCN(C(=O)c1cc(C2CC2)on1)[C@H]1CC[C@H](NC(=O)C[C@H](C)N)CC1` [compound 49, N-((1S,4r)-4-((S)-3-aminobutanamido)cyclohexyl)-5-cyclopropyl-N-(2-methoxyethyl)isoxazole-3-carboxamide], the IC50 was found to be 19 µM.

On to `NCCC(=O)N[C@H]1CC[C@H](N(CCc2ccccc2)C(=O)c2cc(C3CC3)on2)CC1` [compound 42, N-((1r,4r)-4-(3-aminopropanamido)cyclohexyl)-5-cyclopropyl-N-phenethylisoxazole-3-carboxamide], for which the IC50 turned out to be 10.8 µM.

On to `C[C@@H](N)CC(=O)N[C@H]1CC[C@H](N(CCO)C(=O)c2cc(C3CC3)on2)CC1` [compound 50, N-((1R,4r)-4-((R)-3-aminobutanamido)cyclohexyl)-5-cyclopropyl-N-(2-hydroxyethyl)isoxazole-3-carboxamide], for which the IC50 is 14.5 µM.

As to `CCS(=O)(=O)N[C@H]1CC[C@H](NC(=O)c2cc(C3CC3)on2)CC1` [compound 37, 5-cyclopropyl-N-((1r,4r)-4-(ethylsulfonamido)cyclohexyl)isoxazole-3-carboxamide], the IC50 was determined as 6.36 µM.

As to `O=C(CCN1CCOCC1)N[C@H]1CC[C@H](NC(=O)c2cc(C3CC3)on2)CC1` [compound 15, 5-cyclopropyl-N-((1r,4r)-4-(3-morpholino-propanamido)cyclohexyl) isoxazole-3-carboxamide], the half-inhibitory concentration (IC50) came to 20.4 µM.

Consider `C[C@H](N)CC(=O)N[C@H]1CC[C@H](N(CCO)C(=O)c2cc(C3CC3)on2)CC1` [compound 51, N-((1S,4r)-4-((S)-3-aminobutanamido)cyclohexyl)-5-cyclopropyl-N-(2-hydroxyethyl)isoxazole-3-carboxamide], for which the IC50 was 13.8 µM.

Regarding `CC(CN)C(=O)N[C@H]1CC[C@H](NC(=O)c2cc(C3CC3)on2)CC1` (some centres unmarked) [compound 8, N-((1r,4r)-4-(3-amino-2-methylpropanamido)cyclohexyl)-5-cyclopropylisoxazole-3-carboxamide], the IC50 came out at 0.654 µM.

With `NCCC(=O)N(CCO)[C@H]1CC[C@H](NC(=O)c2cc(C3CC3)on2)CC1` [compound 9, N-((1r,4r)-4-(3-amino-N-(2-hydroxyethyl)propanamido)cyclohexyl)-5-cyclo-propylisoxazole-3-carboxamide], the IC50 was found to be 2.28 µM.

On to `CC(C)CNCCC(=O)N[C@H]1CC[C@H](NC(=O)c2cc(C3CC3)on2)CC1` [compound 19, 5-cyclopropyl-N-((1r,4r)-4-(3-(isobutylamino)propanamido)cyclohexyl)isoxazole-3-carboxamide], for which the IC50 stood at 0.919 µM.

For the compound `CC(C)CCN[C@H]1CC[C@H](NC(=O)c2cc(C3CC3)on2)CC1` [compound 25, 5-cyclopropyl-N-((1r,4r)-4-(isopentylamino)cyclohexyl)isoxazole-3-carboxamide], the IC50 stood at 8.23 µM.

With `N[C@H]1CC[C@H](C(=O)N[C@H]2CC[C@H](NC(=O)c3cc(C4CC4)on3)CC2)CC1` [compound 16, N-((1R,4r)-4-((1r,4R)-4-aminocyclohexane-1-carboxamido)cyclohexyl)-5-cyclopropylisoxazole-3-carboxamide], the IC50 worked out at 0.606 µM.

With `NCCCN[C@H]1CC[C@H](NC(=O)c2cc(C3CC3)on2)CC1` [compound 23, N-((1r,4r)-4-((3-aminopropyl)amino)cyclohexyl)-5-cyclopropylisoxazole-3-carboxamide], the IC50 turned out to be 0.342 µM.

On to `C[C@H](N)CC(=O)N[C@H]1CC[C@@H](N(C)C(=O)c2cc(C3CC3)on2)CC1` [compound 57, N-((1R,4s)-4-((S)-3-aminobutanamido)cyclohexyl)-5-cyclopropyl-N-methylisoxazole-3-carboxamide], for which the IC50 was determined as 25.8 µM.

For the compound `CC(C)CN(C(=O)c1cc(C2CC2)on1)[C@H]1CC[C@H](NC(=O)C[C@H](C)N)CC1` [compound 48, N-((1S,4r)-4-((S)-3-aminobutanamido)cyclohexyl)-5-cyclopropyl-N-isobutylisoxazole-3-carboxamide], the IC50 is 3.8 µM.

With `COCCN(C(=O)c1cc(C2CC2)on1)[C@H]1CC[C@H](NC(=O)C[C@@H](C)N)CC1` [compound 40, N-((1R,4r)-4-((R)-3-aminobutanamido)cyclohexyl)-5-cyclopropyl-N-(2-methoxyethyl)isoxazole-3-carboxamide], the IC50 was 9.69 µM.

As to `CC(C)CN(C(=O)c1cc(C2CC2)on1)[C@H]1CC[C@H](NC(=O)CCN)CC1` [compound 43, N-((1r,4r)-4-(3-aminopropanamido)cyclohcxyl)-5-cyclopropyl-N-isobutylisoxazole-3-carboxamide], the IC50 is 4.49 µM.
